Structures are written as SMILES.

One test has as its system Aβ42 production in primary nerve cells. Nature of the test: Measurement of amyloid β production inhibition rate using primary nerve cell (Aβ42 sandwich ELISA). The class given is cell-based. As to conditions: Rattus norvegicus, 72 h, primary nerve cells from cerebral cortex of SD rat fetus; cultured 3 days with compound; culture supernatant, sandwich ELISA for Aβ42; read-out: Aβ42 production inhibitory activity IC50. The protocol:
Measurement of Amyloid β Production Inhibition Rate Using Primary Nerve Cell
The primary nerve cells were collected from the cerebral cortex of rat fetus (CLEA Japan, Inc.: SD rat, fetal life 17 days of age), and suspended in a neurobasal medium containing B27 supplement, L-glutamine, penicillin-streptomycin (manufactured by Invitrogen) at 500,000 cells/mL. Then, the suspension was seeded in poly L-lysine-coated 96 well plate (manufactured by SUMITOMO BAKELITE) by 100 μL, and cultured at 37° C., 5% CO2 for 7 days. The medium was completely removed, and a new neurobasal medium was added at 75 μL/well. Thereto was added (75 μL/well) a neurobasal medium supplemented with a 2-fold measurement concentration of an evaluation target compound, and the mixture was cultured for 3 days. The culture supernatant was collected from each well, diluted as appropriate, applied to sandwich ELISA between BNT77 antibody-BA27 antibody (for Aβ40) and sandwich ELISA between BNT77 antibody-3005 antibody (for Aβ42), and the amounts of Aβ40 and Aβ42 were measured.
The amyloid β production inhibition rate (%) of the compound was calculated by the following formula. (1−(amyloid β production amount with addition of compound)/(amyloid β production amount without addition of compound))×100
The amyloid β production 50% inhibitory rate (IC50 value) was calculated using the statistical analysis software (SAS Preclinical Package) as the concentration of the compound showing 50% inhibition when the amyloid β production amount without addition of the compound is 100%. In addition, a new neurobasal medium was added (75 μL/well) to the cells after collection of the culture supernatant, and the cells were left standing for about 30 min to reach room temperature. Cell-Titer Glo Luminescent Cell Viability Assay (manufactured by Promega) was added at 75 μL/well, and the plate was shaken for 2 min and reacted for about 10 min.
On to `COc1cc(-c2nnc3n2CCCC3(c2ccc(F)c(F)c2)C(C)(C)O)ccc1-c1cnc(C)o1` (centres unmarked) [Example 32, 2-{8-(3,4-difluorophenyl)-3-[3-methoxy-4-(2-methyl-1,3-oxazol-5-yl)phenyl]-5,6,7,8-tetrahydro[1,2,4]triazolo[4,3-a]pyridin-8-yl}propan-2-ol], for which the half-inhibitory concentration (IC50) worked out at 143 nM. Consider `COc1cc(-c2nnc3n2CCCC3(Cc2ccc(F)c(F)c2)C(=O)N(C)CC(F)(F)F)ccc1-c1cnc(C)o1` (centres unmarked) [Example 60, 8-(3,4-difluorobenzyl)-3-[3-methoxy-4-(2-methyl-1,3-oxazol-5-yl)phenyl]-N-methyl-N-(2,2,2-trifluoroethyl)-5,6,7,8-tetrahydro[1,2,4]triazolo[4,3-a]pyridine-8-carboxamide], for which the IC50 amounted to 50 nM. Consider `COc1cc(-c2nnc3n2CCCC3(Oc2ccc(Cl)c(F)c2)C(C)(C)O)ccc1-c1cnc(C)o1` (centres unmarked) [Example 70, 2-{8-(4-chloro-3-fluorophenoxy)-3-[3-methoxy-4-(2-methyl-1,3-oxazol-5-yl)phenyl]-5,6,7,8-tetrahydro[1,2,4]triazolo[4,3-a]pyridin-8-yl}propan-2-ol], for which the IC50 was found to be 10 nM. Consider `COc1cc(-c2nnc3n2CCCC3(CC2CC2)c2ccc(Cl)c(C(F)(F)F)c2)ccc1-n1cnc(C)c1` (centres unmarked) [Example 78, 8-[4-chloro-3-(trifluoromethyl)phenyl]-8-(cyclopropylmethyl)-3-[3-methoxy-4-(4-methyl-1H-imidazol-1-yl)phenyl]-5,6,7,8-tetrahydro[1,2,4]triazolo-[4,3-a]pyridine], for which the IC50 turned out to be 55 nM. On the same count and under the same terms, in the case of `COc1cc(-c2nnn3c2CCCC3(C)c2ccc(Cl)c(Cl)c2)ccc1-n1cnc(C)n1` (centres unmarked) [Example 91, 7-(3,4-dichlorophenyl)-3-[3-methoxy-4-(3-methyl-1H-1,2,4-triazol-1-yl)phenyl]-7-methyl-4,5,6,7-tetrahydro[1,2,3]triazolo[1,5-a]pyridine] it was 148 nM. With `COc1cc(-c2nnc3n2CCCC3(Oc2ccc(C(F)(F)F)cn2)C(C)(C)O)ccc1-c1cnc(C)o1` (centres unmarked) [Example 95, 2-(3-[3-methoxy-4-(2-methyl-1,3-oxazol-5-yl)phenyl]-8-{[5-(trifluoromethyl)pyridin-2-yl]oxy}-5,6,7,8-tetrahydro[1,2,4]triazolo-[4,3-a]pyridin-8-yl)propan-2-ol], the IC50 is 34 nM. Take `COc1cc(-c2nnc3n2CCCC3(OCc2ccc(F)c(F)c2)C(=O)N(C)CC(F)(F)F)ccc1-c1cnc(C)o1` (centres unmarked) [Example 108, 8-[(3,4-difluorobenzyl)oxy]-3-[3-methoxy-4-(2-methyl-1,3-oxazol-5-yl)phenyl]-N-methyl-N-(2,2,2-trifluoroethyl)-5,6,7,8-tetrahydro[1,2,4]triazolo[4,3-a]pyridine-8-carboxamide]: the IC50 came out at 67 nM.

`COc1nc(-c2nnc3n2CCCC3(Oc2ccc(F)c(F)c2)C(C)(C)O)ccc1-n1cnc(C)c1` (centres unmarked) [Example 135, 2-{8-(3,4-difluorophenoxy)-3-[6-methoxy-5-(4-methyl-1H-imidazol-1-yl)pyridin-2-yl]-5,6,7,8-tetrahydro[1,2,4]triazolo[4,3-a]pyridin-8-yl}propan-2-ol]: the IC50 turned out to be 123 nM. Turning to `COc1cc(-c2nnc3n2CCCC3(Sc2ccc(F)c(F)c2)C(C)(C)O)ccc1-c1cnc(C)o1` (centres unmarked) [Example 140, 2-{8-[(3,4-difluorophenyl)sulfanyl]-3-[3-methoxy-4-(2-methyl-1,3-oxazol-5-yl)phenyl]-5,6,7,8-tetrahydro[1,2,4]triazolo[4,3-a]pyridin-8-yl}propan-2-ol], the IC50 was 41 nM. On to `COc1cc(-c2nnc3n2CC(C)CC3(Oc2ccc(F)c(F)c2)C(C)(C)O)ccc1-c1cnc(C)o1` (stereo not drawn) [Example 150, (6RS,8RS or 6RS,8SR)-2-{8-(3,4-difluorophenoxy)-3-[3-methoxy-4-(2-methyl-1,3-oxazol-5-yl)phenyl]-6-methyl-5,6,7,8-tetrahydro[1,2,4]triazolo[4,3-a]pyridin-8-yl}propan-2-ol], for which the IC50 was determined as 118 nM. On the same count and under the same terms, in the case of `COc1cc(-c2nnc3n2CCCC3(Oc2cc(F)c(F)c(F)c2)C(=O)N(C)CC(F)(F)F)ccc1-c1cnc(C)o1` (centres unmarked) [Example 160, 3-[3-methoxy-4-(2-methyl-1,3-oxazol-5-yl)phenyl]-N-methyl-N-(2,2,2-trifluoro-ethyl)-8-(3,4,5-trifluorophenoxy)-5,6,7,8-tetrahydro-[1,2,4]triazolo[4,3-a]pyridine-8-carboxamide] it was 19 nM; in that of `COc1cc(-c2nnc3n2CCCC3(Oc2cc(F)c(F)c(F)c2)C(C)(C)O)ccc1-n1cnc(Cl)c1` (centres unmarked) [Example 165, 2-{3-[4-(4-chloro-1H-imidazol-1-yl)-3-methoxyphenyl]-8-(3,4,5-trifluorophenoxy)-5,6,7,8-tetrahydro[1,2,4]triazolo[4,3-a]pyridin-8-yl}propan-2-ol], 143 nM. As to `Cc1ncc(-c2ccc(-c3nnc4n3CCCC4(Oc3cc(F)c(F)c(F)c3)C(C)(C)O)cc2F)o1` (centres unmarked) [Example 166, 2-{3-[3-fluoro-4-(2-methyl-1,3-oxazol-5-yl)phenyl]-8-(3,4,5-trifluorophenoxy)-5,6,7,8-tetrahydro[1,2,4]triazolo[4,3-a]pyridin-8-yl}propan-2-ol], the IC50 came to 360 nM.

For the compound `Cc1ncc(-c2ccc(-c3nnc4n3CCCC4(Oc3ccc(F)c(F)c3)C(C)(C)O)cc2O)o1` (centres unmarked) [Example 168, 5-[8-(3,4-difluorophenoxy)-8-(1-hydroxy-1-methylethyl)-5,6,7,8-tetrahydro[1,2,4]triazolo[4,3-a]pyridin-3-yl]-2-(2-methyl-1,3-oxazol-5-yl)phenol], the IC50 was 40 nM.

In the case of `COc1cc(-c2nnc3n2CCCC3(Oc2cc(F)c(F)c(F)c2)C(C)(C)O)ccc1-c1ccnc(C)c1` (centres unmarked) [Example 174, 2-{3-[3-methoxy-4-(2-methylpyridin-4-yl)phenyl]-8-(3,4,5-trifluorophenoxy)-5,6,7,8-tetrahydro[1,2,4]triazolo[4,3-a]pyridin-8-yl}propan-2-ol], the IC50 came out at 44 nM. For `Cc1ncc(-c2ccc(-c3nnc4n3CCCC4(Oc3ccc(F)c(F)c3)C(C)(C)O)cc2OCC(F)F)o1` (centres unmarked) [Example 175, 2-{3-[3-(2,2-difluoroethoxy)-4-(2-methyl-1,3-oxazol-5-yl)phenyl]-8-(3,4-difluorophenoxy)-5,6,7,8-tetrahydro[1,2,4]-triazolo[4,3-a]pyridin-8-yl}propan-2-ol], the IC50 turned out to be 103 nM.

Take `Cc1ncc(-c2ccc(-c3nnc4n3CCCC4(Oc3cc(F)c(F)c(F)c3)C(C)(C)O)cc2)o1` (centres unmarked) [Example 178, 2-{3-[4-(2-methyl-1,3-oxazol-5-yl)phenyl]-8-(3,4,5-trifluorophenoxy)-5,6,7,8-tetrahydro[1,2,4]triazolo[4,3-a]pyridin-8-yl}propan-2-ol]: the IC50 turned out to be 168 nM.

The test is the same for the next values; noted with them: primary nerve cells from cerebral cortex of SD rat fetus; cultured 3 days with compound; culture supernatant, sandwich ELISA for Aβ42; read-out: Aβ42 production inhibitory activity IC50.
In the case of `COc1cc(-c2nnc3n2CCCC3(C)c2ccc(Cl)cc2)ccc1-c1cnc(C)o1` (single isomer, unassigned) [Example 3, 8-(4-chlorophenyl)-3-[3-methoxy-4-(2-methyl-1,3-oxazol-5-yl)phenyl]-8-methyl-5,6,7,8-tetrahydro[1,2,4]triazolo[4,3-a]pyridine], the IC50 was determined as 459 nM. Consider `COc1cc(-c2nnc3n2CCCC3(C)c2ccc(Cl)cc2)ccc1-c1cnc(C)o1` (single isomer, unassigned) [Example 4, optically active 8-(4-chlorophenyl)-3-[3-methoxy-4-(2-methyl-1,3-oxazol-5-yl)phenyl]-8-methyl-5,6,7,8-tetrahydro[1,2,4]triazolo[4,3-a]pyridine], for which the 50% inhibitory concentration (IC50) was found to be 32 nM. Still for that read-out and setting: for `COc1cc(-c2nnc3n2CCCC3(CC2CC2)c2ccc(F)c(F)c2)ccc1-c1cnc(C)o1` (centres unmarked) [Example 20, 8-(cyclopropylmethyl)-8-(3,4-difluorophenyl)-3-[3-methoxy-4-(2-methyl-1,3-oxazol-5-yl)phenyl]-5,6,7,8-tetrahydro[1,2,4]triazolo-[4,3-a]pyridine] the value was 35 nM; for `COc1cc(-c2nnc3n2CCCC3(Cc2ccc(F)c(F)c2)C(C)(C)O)ccc1-c1cnc(C)o1` (centres unmarked) [Example 49, 2-{8-(3,4-difluorobenzyl)-3-[3-methoxy-4-(2-methyl-1,3-oxazol-5-yl)phenyl]-5,6,7,8-tetrahydro[1,2,4]triazolo[4,3-a]pyridin-8-yl}propan-2-ol], 31 nM. `COc1cc(-c2nnc3n2CCCC3(Cc2ccc(F)c(F)c2)C(C)(C)O)ccc1-c1cnc(C)o1` (centres unmarked) [Example 50, optically active 2-{8-(3,4-difluorobenzyl)-3-[3-methoxy-4-(2-methyl-1,3-oxazol-5-yl)phenyl]-5,6,7,8-tetrahydro[1,2,4]triazolo[4,3-a]pyridin-8-yl}propan-2-ol]: the IC50 was 14 nM.

For `COc1nc(-c2nnc3n2CCC[C@]3(Oc2cc(F)c(F)c(F)c2)C(C)(C)O)ccc1-n1cnc(C)c1` [Example 177, 2-{(8R)-3-[6-methoxy-5-(4-methyl-1H-imidazol-1-yl)pyridin-2-yl]-8-(3,4,5-trifluorophenoxy)-5,6,7,8-tetrahydro[1,2,4]triazolo[4,3-a]pyridin-8-yl}propan-2-ol monophosphate], the IC50 is 34 nM.

The values are drawn from patent US8822699B2, “Heterocyclic compound and use thereof” (Takeda Pharmaceutical Company Limited, priority 2010, dated 2014).
